Laboratory results taken from patent US20260274829A1, “NEW E3 UBIQUITIN LIGASE LIGAND, PROTEIN DEGRADATION AGENT AND USE THEREOF” (GLUETACS THERAPEUTICS (SHANGHAI) CO., LTD., priority 2023, published 2026).

target: T1, human Cereblon WT GST-tagged protein (Homo sapiens, UniProt Q96SW2); experiment: CRBN binding, HTRF CEREBLON BINDING kit; settings: CRBN binding, HTRF CEREBLON BINDING kit
T1 construct: purchased CISBIO 64BDCRBNPEH
In short: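 Binding inhibition was calculated from the 665/620 nm emission ratios, with blank wells and solvent wells as references. Test compounds competed for GST-tagged human Cereblon WT against a Thalidomide-Re reagent paired with GST Eu antibody. Plates were sealed and held at room temperature for 3 hours before the HTRF read.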

T1 sequence (Q96SW2 whole entry): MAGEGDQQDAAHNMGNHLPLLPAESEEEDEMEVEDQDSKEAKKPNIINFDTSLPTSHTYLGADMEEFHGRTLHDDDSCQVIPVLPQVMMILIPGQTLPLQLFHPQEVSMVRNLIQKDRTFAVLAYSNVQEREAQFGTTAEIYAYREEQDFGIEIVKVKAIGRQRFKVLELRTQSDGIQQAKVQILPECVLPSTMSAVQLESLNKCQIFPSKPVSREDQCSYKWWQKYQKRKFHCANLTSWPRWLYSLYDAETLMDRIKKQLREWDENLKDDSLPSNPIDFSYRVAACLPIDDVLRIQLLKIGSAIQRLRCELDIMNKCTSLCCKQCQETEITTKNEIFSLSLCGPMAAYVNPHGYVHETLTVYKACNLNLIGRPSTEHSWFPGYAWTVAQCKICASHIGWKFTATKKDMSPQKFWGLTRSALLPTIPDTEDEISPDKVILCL

Structure (SMILES) | IC50
CN(C)C(=O)c1cc2cnc(Nc3ccc(N4CCC(N(C)Cc5cccc(N6CCC(=O)NC6=O)c5)CC4)cn3)nc2n1C1CCCC1 [GT-06492, 7-cyclopentyl-2-((5-(4-((3-(2,4-dioxotetrahydropyrimidin-1(2H)-yl)benzyl)(methyl)amino)piperidin-1-yl)pyridin-2-yl)amino)-N,N-dimethyl-7H-pyrrolo[2,3-d]pyrimidine-6-carboxamide] | 1 to 1.9 µM
Cc1nc2c(F)cc(-c3nc(Nc4ccc(N5CCC(N(C)Cc6ccc(N7CCC(=O)NC7=O)cc6)CC5)cn4)ncc3F)cc2n1C(C)C [GT-06838, 1-(4-(((1-(6-((5-fluoro-4-(4-fluoro-1-isopropyl-2-methyl-1H-benzo[d]imidazol-6-yl)pyrimidin-2-yl)amino)pyridin-3-yl)piperidin-4-yl)(methyl)amino)methyl)phenyl)dihydropyrimidine-2,4(1H,3H)-dione] | 0.5 to 1 µM
COc1cc(N2CCN(Cc3cncc(C4CCC(=O)NC4=O)c3)CC2)ccc1Nc1ncc(Cl)c(Nc2ccccc2P(C)(C)=O)n1 (centres unmarked) [GT-07714, 3-(5-((4-(4-((5-chloro-4-((2-(dimethylphosphoryl)phenyl)amino)pyrimidin-2-yl)amino)-3-methoxyphenyl)piperazin-1-yl)methyl)pyridin-3-yl)piperidine-2,6-dione] | < 0.5 µM
O=C1CCN(c2ccc(CN3C[C@H]4C[C@@H]3CN4c3ccc(-c4cc(F)c5c(c4)C(=O)N(C(C(=O)Nc4nccs4)c4ncn6c4CCC6)C5)cc3)nc2)C(=O)N1 (stereo partly drawn) [GT-06190, 2-(6,7-dihydro-5H-pyrrolo[1,2-c]imidazol-1-yl)-2-(6-(4-((1R,4R)-5-((5-(2,4-dioxotetrahydropyrimidin-1(2H)-yl)pyridin-2-yl)methyl)-2,5-diazabicyclo[2.2.1]heptan-2-yl)phenyl)-4-fluoro-1-oxoisoindolin-2-yl)-N-(thiazol-2-yl)acetamide] | 0.5 to 1 µM
CC(=O)c1c(C)c2cnc(Nc3ccc(N4CCN(Cc5ccc(N6CCC(=O)NC6=O)cn5)CC4)cn3)nc2n(C2CCCC2)c1=O [GT-06578, 1-(6-((4-(6-((6-acetyl-8-cyclopentyl-5-methyl-7-oxo-7,8-dihydropyrido[2,3-d]pyrimidin-2-yl)amino)pyridin-3-yl)piperazin-1-yl)methyl)pyridin-3-yl)dihydropyrimidine-2,4(1H,3H)-dione] | 1 to 1.9 µM
NC(=O)c1ncc(N2CCCCC2)nc1Nc1ccc(C2CCN(Cc3cccc(N4CCC(=O)NC4=O)c3)CC2)cc1 [GT-04787, 3-((4-(1-(3-(2,4-dioxotetrahydropyrimidin-1(2H)-yl)benzyl)piperidin-4-yl)phenyl)amino)-5-(piperidin-1-yl)pyrazine-2-carboxamide] | 0.5 to 1 µM
COc1cc(N2CCC(N3CCN(Cc4cccc(N5CCC(=O)NC5=O)c4)CC3)CC2)ccc1Nc1ncc(Cl)c(Nc2ccccc2P(C)(C)=O)n1 [GT-07604, 1-(3-((4-(1-(4-((5-chloro-4-((2-(dimethylphosphoryl)phenyl)amino)pyrimidin-2-yl)amino)-3-methoxyphenyl)piperidin-4-yl)piperazin-1-yl)methyl)phenyl)dihydropyrimidine-2,4(1H,3H)-dione] | 1 to 1.9 µM
O=C1CCN(c2cc(CN3C[C@H]4C[C@@H]3CN4c3ccc(-c4cc(F)c5c(c4)C(=O)N(C(C(=O)Nc4nccs4)c4ncn6c4CCC6)C5)cc3)c(F)cn2)C(=O)N1 (stereo partly drawn) [GT-07386, 2-(6,7-dihydro-5H-pyrrolo[1,2-c]imidazol-1-yl)-2-(6-(4-((1R,4R)-5-((2-(2,4-dioxotetrahydropyrimidin-1(2H)-yl)-5-fluoropyridin-4-yl)methyl)-2,5-diazabicyclo[2.2.1]heptan-2-yl)phenyl)-4-fluoro-1-oxoisoindolin-2-yl)-N-(thiazol-2-yl)acetamide] | 1 to 1.9 µM
COc1cc2nn(C3CCN(Cc4ccc(N5CCC(=O)NC5=O)c(F)c4)CC3)cc2cc1NC(=O)c1cccc(C(F)(F)F)c1 [GT-04751, N-(2-(1-(4-(2,4-dioxotetrahydropyrimidin-1(2H)-yl)-3-fluorobenzyl)piperidin-4-yl)-6-methoxy-2H-indazol-5-yl)-3-(trifluoromethyl)benzamide] | 1 to 1.9 µM
CN(Cc1ccnc(N2CCC(=O)NC2=O)c1)C1CCN(c2ccc(-c3cc(F)c4c(c3)C(=O)N(C(C(=O)Nc3nccs3)c3ncn5c3CCC5)C4)cc2)CC1 (centres unmarked) [GT-07383, 2-(6,7-dihydro-5H-pyrrolo[1,2-c]imidazol-1-yl)-2-(6-(4-(4-(((2-(2,4-dioxotetrahydropyrimidin-1(2H)-yl)pyridin-4-yl)methyl)(methyl)amino)piperidin-1-yl)phenyl)-4-fluoro-1-oxoisoindolin-2-yl)-N-(thiazol-2-yl)acetamide] | 0.5 to 1 µM
O=C1CCC(c2ccc(CN3CCN(Cc4ccc5c(c4)nc(NC(=O)c4cccc(C(F)(F)F)c4)n5[C@H]4CC[C@@H](CO)CC4)CC3)cc2)C(=O)N1 (some centres unmarked) [GT-04978, N-(5-((4-(4-(2,6-dioxopiperidin-3-yl)benzyl)piperazin-1-yl)methyl)-1-((1s,4s)-4-(hydroxymethyl)cyclohexyl)-1H-benzo[d]imidazol-2-yl)-3-(trifluoromethyl)benzamide] | 1 to 1.9 µM
CN(Cc1cccc(NC2CCC(=O)NC2=O)c1)C1CCN(c2ccc(Nc3ncc4nc(Nc5ccccc5)n(C5CCCC5)c4n3)cc2)CC1 (centres unmarked) [GT-07094, 3-((3-(((1-(4-((9-cyclopentyl-8-(phenylamino)-9H-purin-2-yl)amino)phenyl)piperidin-4-yl)(methyl)amino)methyl)phenyl)amino)piperidine-2,6-dione] | 1 to 1.9 µM
CN(C)C(=O)c1cc2cnc(Nc3ccc(N4CCN(Cc5ccc(N6CCC(=O)NC6=O)cc5)CC4)cn3)nc2n1C1CCCC1 [GT-06340, 7-cyclopentyl-2-((5-(4-(4-(2,4-dioxotetrahydropyrimidin-1(2H)-yl)benzyl)piperazin-1-yl)pyridin-2-yl)amino)-N,N-dimethyl-7H-pyrrolo[2,3-d]pyrimidine-6-carboxamide] | 0.5 to 1 µM
CN1CCN([C@@H]2CCCN(c3cnc(C(N)=O)c(Nc4ccc(C5CCN(Cc6ccc(C7CCC(=O)NC7=O)cc6)CC5)cc4)n3)C2)C1=O (stereo partly drawn) [GT-04798, 3-((4-(1-(4-(2,6-dioxopiperidin-3-yl)benzyl)piperidin-4-yl)phenyl)amino)-5-((R)-3-(3-methyl-2-oxoimidazolidin-1-yl)piperidin-1-yl)pyrazine-2-carboxamide] | < 0.5 µM
Cc1nc2c(F)cc(-c3nc(Nc4ccc(CN5CCN(Cc6ccc(C7CCC(=O)NC7=O)cc6)CC5)cn4)ncc3F)cc2n1C(C)C (centres unmarked) [GT-06664, 3-(4-((4-((6-((5-fluoro-4-(4-fluoro-1-isopropyl-2-methyl-1H-benzo[d]imidazol-6-yl)pyrimidin-2-yl)amino)pyridin-3-yl)methyl)piperazin-1-yl)methyl)phenyl)piperidine-2,6-dione] | 0.5 to 1 µM
CN(Cc1cccc(N2CCC(=O)NC2=O)c1)C1CCN(c2ccc(-c3cc(F)c4c(c3)C(=O)N(C(C(=O)Nc3nccs3)c3ncn5c3CCC5)C4)cc2)CC1 (centres unmarked) [GT-05281, 2-(6,7-dihydro-5H-pyrrolo[1,2-c]imidazol-1-yl)-2-(6-(4-(4-((3-(2,4-dioxotetrahydropyrimidin-1(2H)-yl)benzyl)(methyl)amino)piperidin-1-yl)phenyl)-4-fluoro-1-oxoisoindolin-2-yl)-N-(thiazol-2-yl)acetamide] | < 0.5 µM
CN(Cc1ccnc(C2CCC(=O)NC2=O)c1)C1CCN(c2ccc(-c3cc(F)c4c(c3)C(=O)N(C(C(=O)Nc3nccs3)c3ncn5c3CCC5)C4)cc2)CC1 (centres unmarked) [GT-07473, 2-(6,7-dihydro-5H-pyrrolo[1,2-c]imidazol-1-yl)-2-(6-(4-(4-(((2-(2,6-dioxopiperidin-3-yl)pyridin-4-yl)methyl)(methyl)amino)piperidin-1-yl)phenyl)-4-fluoro-1-oxoisoindolin-2-yl)-N-(thiazol-2-yl)acetamide] | 0.5 to 1 µM
CN(C)C(=O)c1cc2cnc(Nc3ccc(N4CCN(Cc5ccc(N6CCC(=O)NC6=O)cn5)CC4)cn3)nc2n1C1CCCC1 [GT-06342, 7-cyclopentyl-2-((5-(4-((5-(2,4-dioxotetrahydropyrimidin-1(2H)-yl)pyridin-2-yl)methyl)piperazin-1-yl)pyridin-2-yl)amino)-N,N-dimethyl-7H-pyrrolo[2,3-d]pyrimidine-6-carboxamide] | 1 to 1.9 µM
CN(C)C(=O)c1cc2cnc(Nc3ccc(N4CCC(N(C)Cc5ccc(N6CCC(=O)NC6=O)cn5)CC4)cn3)nc2n1C1CCCC1 [GT-06493, 7-cyclopentyl-2-((5-(4-(((5-(2,4-dioxotetrahydropyrimidin-1(2H)-yl)pyridin-2-yl)methyl)(methyl)amino)piperidin-1-yl)pyridin-2-yl)amino)-N,N-dimethyl-7H-pyrrolo[2,3-d]pyrimidine-6-carboxamide] | 0.5 to 1 µM
O=C1CCN(c2ccc(CN3CCC(n4cc(NC(=O)c5coc(-c6ccnc(NCC7CC7)c6)n5)c(C(F)F)n4)CC3)nc2)C(=O)N1 [GT-04958, 2-(2-((cyclopropylmethyl)amino)pyridin-4-yl)-N-(3-(difluoromethyl)-1-(1-((5-(2,4-dioxotetrahydropyrimidin-1(2H)-yl)pyridin-2-yl)methyl)piperidin-4-yl)-1H-pyrazol-4-yl)oxazole-4-carboxamide] | 0.5 to 1 µM
Nc1nnc(-c2ccccc2O)cc1N1CCN(Cc2ccc(N3CCC(=O)NC3=O)cn2)CC1 [GT-05016, 1-(6-((4-(3-amino-6-(2-hydroxyphenyl)pyridazin-4-yl)piperazin-1-yl)methyl)pyridin-3-yl)dihydropyrimidine-2,4(1H,3H)-dione] | 0.5 to 1 µM
Nc1nnc(-c2cc(F)ccc2O)cc1N1CCN(Cc2ccc(C3CCC(=O)NC3=O)cc2)CC1 (centres unmarked) [GT-05062, 3-(4-((4-(3-amino-6-(5-fluoro-2-hydroxyphenyl)pyridazin-4-yl)piperazin-1-yl)methyl)phenyl)piperidine-2,6-dione] | 0.5 to 1 µM
COc1cc2nn(C3CCN(Cc4cccc(N5CCC(=O)NC5=O)c4)CC3)cc2cc1NC(=O)c1cccc(C(F)(F)F)n1 [GT-04774, N-(2-(1-(3-(2,4-dioxotetrahydropyrimidin-1(2H)-yl)benzyl)piperidin-4-yl)-6-methoxy-2H-indazol-5-yl)-6-(trifluoromethyl)picolinamide] | 1 to 1.9 µM
